The target in assay [1] is T1, native human ASGPR protein (Homo sapiens, UniProt P07306).
T1 sequence (P07306 1-291): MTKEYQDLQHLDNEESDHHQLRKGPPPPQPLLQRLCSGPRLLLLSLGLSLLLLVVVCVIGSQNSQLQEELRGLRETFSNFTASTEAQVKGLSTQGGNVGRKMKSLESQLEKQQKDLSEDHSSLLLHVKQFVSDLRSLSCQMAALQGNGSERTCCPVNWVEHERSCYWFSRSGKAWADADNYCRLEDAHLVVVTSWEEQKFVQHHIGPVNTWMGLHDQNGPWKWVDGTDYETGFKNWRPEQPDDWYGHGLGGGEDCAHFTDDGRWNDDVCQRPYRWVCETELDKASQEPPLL
In words: Octet (BLI) binding to ASGPR protein. Particulars: 1:1 binding model. As for the experimental part:
Protocol. The binding to native human ASGPR protein was measured by Bio-Layer Interferometry (BLI) using the Sartorius Octet 96e platform (Goettingen, Germany). The binding assay was performed using the Ni-NTA (NTA) Dip and Read Biosensors (Sartorius Catalog #18-5101; Goettingen, Germany) in OptiPlate-96F, Black, 96-well, Pinch bar design, plates (Perkin Elmer Catalog #6005270; Waltham, MA, USA) with the following steps: (1) 60 seconds of baseline in Assay Buffer (PBS (Gibco Catalog #10010; Pottstown, PA, USA)+0.05% Tween 20 (v/v) (Fisher BioReagents Catalog BP337-500; Pittsburgh, PA, USA)+0.1% BSA (w/v) (Rockland Catalog #BSA-50; Pottstown, PA, USA) +1 mM CaCl2; Sigma Catalog #21115; Burlington, MA, USA); (2) 600 seconds of loading with 100 nM ASGPR protein; (3) 60 seconds of baseline; (4) 180 seconds of association with a dilution series of ligand consisting of seven concentrations. The eighth tip in the column was run in Assay Buffer to serve as a reference sensor, the signal of which was subtracted from the sample sensors. (5) 180 seconds of dissociation in Assay Buffer.
Results. Data analysis was done using the Octet Data Analysis HT software (Sartorius, Goettingen, Germany). Processed data was globally fit to a 1:1 binding model for determination of the equilibrium dissociation constant (KD).
(Biolayer interferometry detects binding as a change in optical thickness at a sensor tip.)

Another assay addresses human TNF-α (Homo sapiens, UniProt P01375). In words: TNF-α thermal melt assay. The arrangement: Amino acids 77-233 of Human TNF-α protein with an N-terminal GST tag; GST (N, cleaved yes); made in house; host or cells: Escherichia coli (BL21 NiCo). Particulars: thermal melt, SYPRO Orange, Kd calculated as in Matulis et al.; read-out: TM Kd. It is filed as binding. As for the experimental part:
Protein was purified using glutathione agarose purification columns (Pierce™, Waltham, MA, USA). Following purification, the GST tag was removed using HRV3c protease (Pierce™, Waltham, MA, USA) and the GST tag and the TNF-α were separated via ion exchange chromatography using a 20 mM HEPES pH 8.0 buffer system ramping from 0 to 1 M NaCl over 12 column volumes with 5 ml of Q Sepharose (HiScreen Q HP, Cytiva™, Marlborough, MA, USA). The final protein includes the amino acids GPLGSG at the N-terminus of the protein.
Protein was heated from 20° C. to 95° C. at one degree per minute in a Roche Opus384 qPCR machine.

Some results are limits rather than exact numbers.

Sequence of human TNF-α (P01375 77-233): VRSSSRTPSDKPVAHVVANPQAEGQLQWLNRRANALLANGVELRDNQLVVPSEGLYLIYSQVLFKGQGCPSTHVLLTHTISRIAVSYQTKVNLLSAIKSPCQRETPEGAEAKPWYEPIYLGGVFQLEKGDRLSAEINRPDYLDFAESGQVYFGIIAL

Take `CCC(=O)NC1COC(COCCOCCOCCOCCn2cc(COCC(COCc3cn(CCOCCOCCOCCOCC4OCC(NC(=O)CC)C(O)C4O)nn3)(COCc3cn(CCOCCOCCOCCOCC4OCC(NC(=O)CC)C(O)C4O)nn3)NC(=O)CNC(=O)CCOCCOCCC(=O)N3CCN(Cc4ccc(-c5c[nH]c6ccncc56)c(OCCc5ccc(-c6cccc7ccncc67)cc5)c4)CC3)nn2)C(O)C1O` (stereo not shown) [Compound 103]: the Kd (in general, the equilibrium constant for the complex coming apart) in assay [1] is 2.13 nM; at human TNF-α, 1000 nM.

Regarding `CCC(=O)NC1COC(COCCOCCOCCOCCn2cc(COCC(COCc3cn(CCOCCOCCOCCOCC4OCC(NC(=O)CC)C(O)C4O)nn3)(COCc3cn(CCOCCOCCOCCOCC4OCC(NC(=O)CC)C(O)C4O)nn3)NC(=O)CNC(=O)CCC(=O)N3CCN(Cc4ccc(-c5c[nH]c6ccncc56)c(OCCc5ccc(-c6cccc7ccncc67)cc5)c4)CC3)nn2)C(O)C1O` (stereo not shown) [Compound 104], the figures for the Kd (in assay [1]; on human TNF-α) were 1 nM and 1000 nM, respectively.

`CCC(=O)NC1COC(COCCOCCOCCOCCn2cc(COCCNC(=O)CNC(=O)CCOCCOCCOCCOCCOCCOCCC(=O)N3CCN(Cc4ccc(-c5c[nH]c6ccncc56)c(OCCc5ccc(-c6cccc7ccncc67)cc5)c4)CC3)nn2)C(O)C1O` (stereo not shown) [Compound 105]: the “Octet Kd ASGPR” value in assay [1] is reported as “weak”. Besides, the Kd at human TNF-α is 65 nM.

Regarding `CCC(=O)N[C@H]1CO[C@H](COCCOCCOCCOCCn2cc(COCCNC(=O)CNC(=O)CCC(=O)N3CCN(Cc4ccc(-c5c[nH]c6ccncc56)c(OCCc5ccc(-c6cccc7ccncc67)cc5)c4)CC3)nn2)[C@H](O)[C@@H]1O` [Compound 106], the results for the Kd (in assay [1]; at human TNF-α) were greater than 1000 nM and 50 nM, respectively.

`CCC(=O)N[C@H]1CO[C@H](COCCOCCOCCOCCn2cc(COCCNC(=O)CNC(=O)CCOCCOCCC(=O)N3CCN(Cc4ccc(-c5c[nH]c6ccncc56)c(OCCc5ccc(-c6cccc7ccncc67)cc5)c4)CC3)nn2)[C@H](O)[C@@H]1O` [Compound 107]: the Kd in assay [1] was 963 nM; on human TNF-α it was 55 nM.

These data come from patent US20260256921A1, “BIFUNCTIONAL MOLECULES TO TARGET DEGRADATION OF TUMOR NECROSIS FACTOR” (Biohaven Therapeutics Ltd., priority 2023, published 2026).
